Measured values as given in ChEMBL document CHEMBL1135579, “Serine-threonine protein phosphatase inhibitors: development of potential therapeutic strategies” (J Med Chem, 2002).

How the values were obtained:
[1] = Inhibition of growth after 72 hr continuous exposure to test compounds in Ovarian A2780 tumor cell lines; format: functional; conditions: A2780, 72 h
[2] = Inhibition of growth after 72 hr continuous exposure to test compounds in Osteosarcoma 143B tumor cell lines; format: functional; conditions: Homo sapiens
[3] = Inhibition of growth after 72 hr continuous exposure to test compounds in colon HT-29 tumor cell lines; format: functional; conditions: Homo sapiens, HT-29, 72 h
[4] = target: T1, Serine-threonine protein phosphatase 2A regulatory subunit (Gallus gallus, UniProt Q8AWE3); assay: Inhibition of Serine/threonine protein phosphatase 2A by anhydride modified Cantharidin analogues
T1 sequence (Q8AWE3 whole entry): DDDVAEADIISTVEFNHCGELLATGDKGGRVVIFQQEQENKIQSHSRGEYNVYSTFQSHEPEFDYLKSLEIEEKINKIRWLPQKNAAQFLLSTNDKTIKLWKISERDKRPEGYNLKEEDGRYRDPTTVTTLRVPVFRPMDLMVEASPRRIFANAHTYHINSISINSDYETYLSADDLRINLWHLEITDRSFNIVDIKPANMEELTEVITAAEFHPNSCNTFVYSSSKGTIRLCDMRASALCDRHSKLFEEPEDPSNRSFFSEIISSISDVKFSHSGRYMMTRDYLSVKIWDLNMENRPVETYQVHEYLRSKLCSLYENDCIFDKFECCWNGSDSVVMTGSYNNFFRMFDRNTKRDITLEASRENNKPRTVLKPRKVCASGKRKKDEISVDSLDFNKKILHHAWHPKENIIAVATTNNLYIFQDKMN

[5] = target: T2, Serine-threonine protein phosphatase 2A regulatory subunit (Gallus gallus) (UniProt Q8AWE3); assay: Tested for selective inhibition of Serine/threonine protein phosphatase 2A (PP2A) with respect to inhibition of Serine/threonine protein phosphatase 1 (PP1)
T2 sequence (whole entry): T1 sequence (Q8AWE3 whole entry)

[6] = Inhibition of growth after 72 hr continuous exposure to test compounds in Ovarian ADDP tumor cell lines; format: functional
[7] = target: T3, Serine/threonine-protein phosphatase PP1-gamma catalytic subunit (Homo sapiens, UniProt P36873); assay: Inhibition of Serine/threonine protein phosphatase 1 by anhydride modified Cantharidin analogues
Target sequence in this assay (P36873 whole entry): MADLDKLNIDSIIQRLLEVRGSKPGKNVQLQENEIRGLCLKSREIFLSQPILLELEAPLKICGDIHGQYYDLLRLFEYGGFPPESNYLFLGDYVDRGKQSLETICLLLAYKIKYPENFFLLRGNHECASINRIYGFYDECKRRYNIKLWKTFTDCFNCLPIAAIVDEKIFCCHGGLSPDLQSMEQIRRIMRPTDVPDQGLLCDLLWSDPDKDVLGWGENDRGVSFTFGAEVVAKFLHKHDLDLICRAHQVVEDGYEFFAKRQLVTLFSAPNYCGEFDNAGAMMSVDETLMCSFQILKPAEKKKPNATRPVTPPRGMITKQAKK

[8] = Inhibition of growth after 72 hr continuous exposure to test compounds in Colon HCT 116 tumor cell lines; format: functional; conditions: Homo sapiens, HCT-116, 72 h
[9] = target: Serine/threonine-protein phosphatase PP1-gamma catalytic subunit (Homo sapiens, UniProt P36873, C127S); assay: Inhibition of Serine/threonine protein phosphatase 1 (PP1) mutant type C127S by compound was evaluated
Chain of Serine/threonine-protein phosphatase PP1-gamma catalytic subunit (Homo sapiens, UniProt P36873, C127S) (P36873 2-323 C127S limits assumed): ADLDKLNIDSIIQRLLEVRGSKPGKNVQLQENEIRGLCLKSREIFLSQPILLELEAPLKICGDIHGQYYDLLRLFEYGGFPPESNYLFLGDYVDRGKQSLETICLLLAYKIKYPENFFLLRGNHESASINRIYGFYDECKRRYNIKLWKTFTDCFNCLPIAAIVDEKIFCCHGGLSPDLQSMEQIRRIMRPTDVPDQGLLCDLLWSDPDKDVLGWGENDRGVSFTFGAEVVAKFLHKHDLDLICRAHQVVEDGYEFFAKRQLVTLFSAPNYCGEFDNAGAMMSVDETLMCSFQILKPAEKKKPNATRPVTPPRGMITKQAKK

[10] = Exogenous inhibition concentration of Serine/threonine protein phosphatase 2B (PP2B)
[11] = target: Serine/threonine-protein phosphatase PP1-gamma catalytic subunit (Homo sapiens, UniProt P36873, H248N); assay: Inhibition of Serine/threonine protein phosphatase 1 (PP1) mutant type H248N by compound was evaluated
Chain of Serine/threonine-protein phosphatase PP1-gamma catalytic subunit (Homo sapiens, UniProt P36873, H248N) (P36873 2-323 H248N limits assumed): as the sequence (P36873 2-323 C127S limits assumed) above, with S126C, H247N counted along it

[12] = target: Serine/threonine-protein phosphatase PP1-gamma catalytic subunit (Homo sapiens, UniProt P36873, R221S); assay: Inhibition of Serine/threonine protein phosphatase 1 (PP1) mutant type R221S by compound was evaluated
Chain of Serine/threonine-protein phosphatase PP1-gamma catalytic subunit (Homo sapiens, UniProt P36873, R221S) (P36873 2-323 R221S limits assumed): as the sequence (P36873 2-323 C127S limits assumed) above, with S126C, R220S counted along it

[13] = target: Serine/threonine-protein phosphatase PP1-gamma catalytic subunit (Homo sapiens, UniProt P36873, E275R); assay: Inhibition of Serine/threonine protein phosphatase 1 (PP1) mutant type E275R by compound was evaluated
Chain of Serine/threonine-protein phosphatase PP1-gamma catalytic subunit (Homo sapiens, UniProt P36873, E275R) (P36873 2-323 E275R limits assumed): as the sequence (P36873 2-323 C127S limits assumed) above, with S126C, E274R counted along it

[14] = target: Serine/threonine-protein phosphatase PP1-gamma catalytic subunit (Homo sapiens, UniProt P36873, D208A); assay: Inhibition of Serine/threonine protein phosphatase 1 (PP1) mutant type D208A by compound was evaluated
Chain of Serine/threonine-protein phosphatase PP1-gamma catalytic subunit (Homo sapiens, UniProt P36873, D208A) (P36873 2-323 D208A limits assumed): as the sequence (P36873 2-323 C127S limits assumed) above, with S126C, D207A counted along it

[15] = Exogenous inhibition concentration of Serine/threonine protein phosphatase 4 (PP4)
[16] = target: T3, Serine/threonine-protein phosphatase PP1-gamma catalytic subunit; assay: Inhibition of Serine/threonine protein phosphatase 1 (PP1) mutants by natural toxins in wild type
Target sequence in this assay (P36873 2-323 limits assumed, change not shown): as the sequence (P36873 2-323 C127S limits assumed) above, with S126C counted along it

[17] = target: Serine/threonine-protein phosphatase PP1-gamma catalytic subunit (Homo sapiens, UniProt P36873, R96A); assay: Inhibition of Serine/threonine protein phosphatase 1 (PP1) mutant type R96A by compound was evaluated
Chain of Serine/threonine-protein phosphatase PP1-gamma catalytic subunit (Homo sapiens, UniProt P36873, R96A) (P36873 2-323 R96A limits assumed): as the sequence (P36873 2-323 C127S limits assumed) above, with R95A, S126C counted along it

[18] = target: Serine/threonine-protein phosphatase PP1-gamma catalytic subunit (Homo sapiens, UniProt P36873, Y272F); assay: Inhibition of Serine/threonine protein phosphatase 1 (PP1) mutant type Y272F by compound was evaluated
Chain of Serine/threonine-protein phosphatase PP1-gamma catalytic subunit (Homo sapiens, UniProt P36873, Y272F) (P36873 2-323 Y272F limits assumed): as the sequence (P36873 2-323 C127S limits assumed) above, with S126C, Y271F counted along it

[19] = target: Serine/threonine-protein phosphatase PP1-gamma catalytic subunit (Homo sapiens, UniProt P36873, D220V); assay: Inhibition of Serine/threonine protein phosphatase 1 (PP1) mutant type D220V by compound was evaluated
Chain of Serine/threonine-protein phosphatase PP1-gamma catalytic subunit (Homo sapiens, UniProt P36873, D220V) (P36873 2-323 D220V limits assumed): as the sequence (P36873 2-323 C127S limits assumed) above, with S126C, D219V counted along it

[20] = Exogenous inhibition of Serine/threonine protein phosphatase 1 (PP1); parameters: species or system Homo sapiens
[21] = target: Serine/threonine-protein phosphatase PP1-gamma catalytic subunit (Homo sapiens, UniProt P36873, N124D); assay: Inhibition of Serine/threonine protein phosphatase 1 (PP1) mutant type N124D by compound was evaluated
Chain of Serine/threonine-protein phosphatase PP1-gamma catalytic subunit (Homo sapiens, UniProt P36873, N124D) (P36873 2-323 N124D limits assumed): as the sequence (P36873 2-323 C127S limits assumed) above, with N123D, S126C counted along it

[22] = Exogenous inhibition concentration of Serine/threonine protein phosphatase 2C (PP2C); NI means no inhibition.
[23] = Selectivity for interaction at Serine/threonine protein phosphatase 2B (PP2B); conditions: read-out: Ki app

Work on `CCOC(=O)C1C(C(=O)O)C2CC[C@H]1O2` (stereo not given in full) yielded a GI50 [1] of 185 µM, a GI50 [2] of 437 µM and a GI50 [3] of 243 µM. It also gave an IC50 [4] of 0.45 µM, a PP2A Selectivity [5] of 6.6 and a GI50 [6] of 330 µM. The IC50 [7] was 2.96 µM and the GI50 [8] was 266 µM.

`C=C1[C@@H](O)[C@@H]2O[C@]3(CC[C@H](/C=C/[C@@H](C)[C@@H]4CC(C)=C[C@@]5(O[C@H](C[C@@](C)(O)C(=O)O)CC[C@H]5O)O4)O3)CC[C@H]2O[C@@H]1[C@@H](O)C[C@H](C)[C@H]1O[C@@]2(CCCCO2)CC[C@H]1C` [OKADAIC ACID] showed an IC50 [9] of 0.078 µM, an IC50 [10] greater than 10000 µM and an IC50 [11] greater than 5 µM. It also gave an IC50 [12] greater than 5 µM, an IC50 [13] of 0.048 µM and an IC50 [14] greater than 5 µM. For the same molecule, the IC50 [15] was 0.0002 µM, the IC50 [16] was 0.045 µM and the IC50 [17] was 0.26 µM. It also gave an IC50 [18] of 1.15 µM, an IC50 [19] of 0.028 µM and an IC50 [20] of 0.003 µM. The IC50 [21] was greater than 5 µM and the IC50 [22] was “no inhibition”.

Work on `O=C(O)C1C2C[C@H](COC(=O)C3C[C@H]3c3ccccc3)[C@@H](O2)C1C(=O)O` (stereo not given in full) yielded an IC50 [10] of 11.5 µM, a Ki [23] of 0.5 µM and an IC50 [20] of 4 µM.
